The values that follow come from patent US20260355196A1, “INHIBITORS AND DEGRADERS OF PIP4K PROTEIN” (Larkspur Biosciences, Inc., priority 2023, published 2026).

The target of the assay is T1, PIP4K2C (Homo sapiens, UniProt Q8TBX8).
T1 sequence (Q8TBX8 1-421): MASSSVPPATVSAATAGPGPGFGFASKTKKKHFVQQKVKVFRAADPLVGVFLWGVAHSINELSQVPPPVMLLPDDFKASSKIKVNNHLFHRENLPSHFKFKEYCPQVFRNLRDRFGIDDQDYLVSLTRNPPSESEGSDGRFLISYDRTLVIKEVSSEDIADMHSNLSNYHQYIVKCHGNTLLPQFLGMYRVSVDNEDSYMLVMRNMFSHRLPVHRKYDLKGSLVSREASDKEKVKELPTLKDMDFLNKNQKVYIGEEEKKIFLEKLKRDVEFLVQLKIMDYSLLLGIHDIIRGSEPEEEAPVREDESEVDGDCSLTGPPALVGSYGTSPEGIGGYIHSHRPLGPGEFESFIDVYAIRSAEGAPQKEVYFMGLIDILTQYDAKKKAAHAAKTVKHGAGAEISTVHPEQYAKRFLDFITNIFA
The assay is described as follows: HiBiT PIP4K2C degradation assay in MOLT-4 cells (endogenous PIP4K2C C-terminally tagged with HiBiT). Type of assay: cell-based. Also on record: untagged in primary human PBMCs and monocyte-derived dendritic cells. Particulars: 6 hours of incubation time, rather than 24 hours; MOLT-4, top concentration 10 micromolar; read-out: HiBIT-degradation MOLT4 PIP4k2C DC50 (6 hours, marked *). Put shortly:
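DC50 derived by Hill fit of luminescence from Nano-Glo HiBiT lytic detection. Cells were HiBiT knock-in MOLT-4 (C-terminal tag on endogenous PIP4K2C), exposed 6 h or 24 h at 37 C to compound, top concentration 10 micromolar, 3-fold steps, 10 points, duplicates.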
In the case of `O=C1CCC(Nc2ccc(C3CCN([C@H]4CC[C@H](NC(=O)[C@H]5CC[C@H](Nc6ncc(F)c(-c7cccc(-c8ccc[nH]c8=O)c7)n6)CC5)CC4)CC3)c(F)c2)C(=O)N1` (stereo partly drawn) [Compound 402, trans-(1r,4R)—N-((1r,4R)-4-(4-(4-((2,6-dioxopiperidin-3-yl)amino)-2-fluorophenyl)piperidin-1-yl)cyclohexyl)-4-((5-fluoro-4-(3-(2-oxo-1,2-dihydropyridin-3-yl)phenyl)pyrimidin-2-yl)amino)cyclohexane-1-carboxamide], the DC50 is less than 500 nM.
Regarding `O=C1CCC(Nc2ccc(N3CCC(OC4CCN(C(=O)[C@H]5CC[C@H](Nc6ncc(F)c(-c7cccc(-c8ccc[nH]c8=O)c7)n6)CC5)CC4)CC3)c(F)c2)C(=O)N1` (stereo partly drawn) [Compound 403, trans-3-((3-fluoro-4-(4-((1-(4-((5-fluoro-4-(3-(2-oxo-1,2-dihydropyridin-3-yl)phenyl)pyrimidin-2-yl)amino)cyclohexane-1-carbonyl)piperidin-4-yl)oxy)piperidin-1-yl)phenyl)amino)piperidine-2,6-dione], the DC50 is less than 500 nM.
As for `Cn1nc(C2CCC(=O)NC2=O)c2ccc(N3CCN([C@H]4CC[C@H](NC(=O)[C@H]5CC[C@H](Nc6ncc(F)c(-c7cccc(-c8ccc[nH]c8=O)c7)n6)CC5)CC4)CC3)cc21` (stereo partly drawn) [Compound 404, trans-(1r,4R)—N-((1r,4R)-4-(4-(3-(2,6-dioxopiperidin-3-yl)-1-methyl-1H-indazol-6-yl)piperazin-1-yl)cyclohexyl)-4-((5-fluoro-4-(3-(2-oxo-1,2-dihydropyridin-3-yl)phenyl)pyrimidin-2-yl)amino)cyclohexane-1-carboxamide], the 50% degradation concentration (DC50) is greater than 5000 nM.
In the case of `O=C1CCC(Nc2ccc(N3CCC(N4CCC(C(=O)N[C@H]5CC[C@H](Nc6ncc(F)c(-c7cccc(-n8ccccc8=O)c7)n6)CC5)CC4)C(F)C3)c(F)c2)C(=O)N1` (stereo partly shown) [Compound 405, 1′-(4-((2,6-dioxopiperidin-3-yl)amino)-2-fluorophenyl)-3′-fluoro-N-((1r,4r)-4-((5-fluoro-4-(3-(2-oxopyridin-1(2H)-yl)phenyl)pyrimidin-2-yl)amino)cyclohexyl)-[1,4′-bipiperidine]-4-carboxamide] it was less than 500 nM; in that of `O=C1CCC(Nc2ccc(N3CCC(N4CCC(C(=O)N[C@H]5CC[C@H](Nc6ncc(F)c(-c7cccc(-c8ccc[nH]c8=O)c7)n6)CC5)CC4)C(F)C3)c(F)c2)C(=O)N1` (stereo partly shown) [Compound 406, 1′-(4-((2,6-dioxopiperidin-3-yl)amino)-2-fluorophenyl)-3′-fluoro-N-((1r,4r)-4-((5-fluoro-4-(3-(2-oxo-1,2-dihydropyridin-3-yl)phenyl)pyrimidin-2-yl)amino)cyclohexyl)-[1,4′-bipiperidine]-4-carboxamide], less than 500 nM; in that of `O=C1CCC(Nc2ccc(N3CCC(CC4CCN(C(=O)[C@H]5CC[C@H](Nc6ncc(F)c(-c7cccc(-c8ccc[nH]c8=O)c7)n6)CC5)CC4)CC3)c(F)c2)C(=O)N1` (stereo partly drawn) [Compound 407, trans-3-((3-fluoro-4-(4-((1-(4-((5-fluoro-4-(3-(2-oxo-1,2-dihydropyridin-3-yl)phenyl)pyrimidin-2-yl)amino)cyclohexane-1-carbonyl)piperidin-4-yl)methyl)piperidin-1-yl)phenyl)amino)piperidine-2,6-dione], less than 500 nM.
As for `O=C1CCC(Nc2ccc(C3CCN(CC4CCN(C(=O)[C@H]5CC[C@H](Nc6ncc(F)c(-c7cccc(-c8ccc[nH]c8=O)c7)n6)CC5)CC4)CC3(F)F)c(F)c2)C(=O)N1` (stereo partly drawn) [Compound 408, trans-3-[4-[3,3-difluoro-1-[[1-[4-[[5-fluoro-4-[3-(2-oxo-1H-pyridin-3-yl)phenyl]pyrimidin-2-yl]amino]cyclohexanecarbonyl]-4-piperidyl]methyl]-4-piperidyl]-3-fluoro-anilino]piperidine-2,6-dione], the DC50 is less than 500 nM.
